The record followed here is patent US12668586B2, “AhR inhibitor, use thereof, and preparation method therefor” (CHONGQING PHARSCIN INNOBIO CO., LTD., priority 2021, dated 2026).

The target in the assay is T1, AhR (Homo sapiens, UniProt P35869).
T1 sequence (P35869 11-848): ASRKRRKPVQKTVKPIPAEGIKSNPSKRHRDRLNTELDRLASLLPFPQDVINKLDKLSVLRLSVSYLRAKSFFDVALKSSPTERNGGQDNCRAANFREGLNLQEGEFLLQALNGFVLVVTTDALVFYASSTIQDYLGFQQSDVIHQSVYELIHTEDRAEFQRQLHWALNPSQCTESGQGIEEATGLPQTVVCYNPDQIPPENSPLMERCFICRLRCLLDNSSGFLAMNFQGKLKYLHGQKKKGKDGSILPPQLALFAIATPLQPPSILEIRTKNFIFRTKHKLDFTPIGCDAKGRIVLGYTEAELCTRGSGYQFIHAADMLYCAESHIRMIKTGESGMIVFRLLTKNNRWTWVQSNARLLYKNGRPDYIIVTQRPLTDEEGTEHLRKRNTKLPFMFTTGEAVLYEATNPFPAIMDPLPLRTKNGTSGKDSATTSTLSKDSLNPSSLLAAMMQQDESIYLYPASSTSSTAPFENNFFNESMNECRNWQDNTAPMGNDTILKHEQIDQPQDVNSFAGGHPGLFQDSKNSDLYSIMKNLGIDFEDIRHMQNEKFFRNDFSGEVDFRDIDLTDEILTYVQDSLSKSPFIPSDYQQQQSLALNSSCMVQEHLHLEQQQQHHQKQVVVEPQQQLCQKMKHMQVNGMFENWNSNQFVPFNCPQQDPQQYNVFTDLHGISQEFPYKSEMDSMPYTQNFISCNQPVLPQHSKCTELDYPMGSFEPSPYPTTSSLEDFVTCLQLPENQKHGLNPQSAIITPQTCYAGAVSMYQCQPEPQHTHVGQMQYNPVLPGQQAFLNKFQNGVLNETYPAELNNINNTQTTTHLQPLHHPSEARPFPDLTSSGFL
The experiment in a line: AhR inhibitory activity experiment, in vitro assay 1: HepG2-Lucia AhR cells, Lucia luciferase reporter (QUANTI-Luc). Format: cell-based. Conditions: 24 hours incubation at 37° C., Lucia luciferase in supernatant, read-out: AhR inhibitory activity C50. How it is done:
Test Example: AhR Inhibitory Activity Experiment
When QUANTI-Luc™ (InvivoGen Company) testing reagents are used, AhR gene signaling pathways can be studied by monitoring the activity of Lucia luciferase in the cell culture supernatant.
In Vitro Assay 1: Assay on Inhibitory Activity in Human Cell Lines
Adherent cell layers of HepG2-Lucia™ AhR cells in a logarithmic growth phase were washed with PBS, and then the cells were isolated with trypsin. The isolated cells were centrifuged at 1000 RPM for 5 minutes, the supernatant was removed, and the cells were re-suspended with a test medium by 1.25×10^5 cells/ml.
20,000 cells were added to each well of a 96-well plate, and the 96-well plate was placed in a CO2 incubator to incubate the cells at 37° C. for 24 hours in the absence (negative control) or presence of test compounds with gradient increasing concentrations (typical dilutions: 169 pmol/L, 0.5 nmol/L, 1.5 nmol/L; 4.6 nmol/L, 13.7 nmol/L, 41 nmol/L, 123 nmol/L, 370 nmol/L, 1.1 μmol/L, 3.3 μmol/L and 10 μmol/L, in triplicate).
The 20 μl/well cell supernatant was transferred to a black 96-well plate, a 50 μL/well QUANTI-Luc™ solution was added, and the activity of Lucia luciferase was measured on a multifunctional ELISA reader Spark 10 M (Tecan Company) through a QUANTI-Luc™ luciferase assay system.
Experimental results are shown in Table 1, wherein for IC50 values, “++++” represents IC50<0.05 μM; “+++” represents IC50 between 0.05 μM and 0.2 μM; “++” represents IC50 between 0.2 μM and 1.0 μM; and “+” represents IC50>1.0 μM.
(In general: Reporter assays use an easily measured gene product as a stand-in for the process of interest.)
With `COc1ccc(-c2nc(C(=O)N[C@@H](C)c3ccnc(F)c3)cc(-c3ccc(Cl)cc3)n2)cc1` [Compound 50, (S)-6-(4-chlorophenyl)-N-(1-(2-fluoro-4-pyridine)ethyl)-2-(p-methoxyphenyl)pyrimidine-4-formamide], the IC50 was greater than 1000 nM. `C[C@H](NC(=O)c1cc(-c2ccc(Cl)cc2)nc(-c2cnn(C)c2)n1)c1ccc(F)c(F)c1` [Compound 1, (S)-6-(4-chlorophenyl)-N-(1-(3,4-difluorophenyl)ethyl)-2-(1-methyl-1H-pyrazol-4-yl)pyrimidine-4-formamide]: the IC50 is less than 50 nM. With `Cn1cc(-c2nc(C(=O)N[C@H]3CCc4ccc(F)cc43)cc(-c3ccc(Cl)cc3)n2)cn1` [Compound 21, (S)-6-(4-chlorophenyl)-N-((S)-(6-fluoro-2,3-dihydro)-(−)-1-yl-2-indene)-2-(1-methyl-1H-pyrazol-4-yl)pyrimidine-4-formamide], the IC50 was 50 to 200 nM. The same measure for `CNC(=O)c1ccc([C@H](C)NC(=O)c2cc(-c3ccc(Cl)cc3)nc(-c3cnn(C)c3)n2)cc1F` [Compound 52, (S)-6-(4-chlorophenyl)-N-(1-(3-fluoro-4-(methylaminoformyl)phenyl)ethyl)-2-(1-methyl-1H-pyrazol-4-yl)pyrimidine-4-formamide]: less than 50 nM. As to `C[C@H](NC(=O)c1cc(-c2ccc(Cl)cc2)nc(-c2cnn(C)c2)n1)c1ccc(Cl)c(F)c1` [Compound 13, (S)-6-(4-chlorophenyl)-N-(1-(3-fluoro-4-chlorophenyl)ethyl)-2-(1-methyl-1H-pyrazol-4-yl)pyrimidine-4-formamide], the IC50 was less than 50 nM. The same measure for `O=C(N[C@H]1CCc2ncccc21)c1cc(-c2ccc(Cl)cc2)nc(-c2ccnc(F)c2)n1` [Compound 62, (S)-6-(4-chlorophenyl)-N-((S)-6,7-dihydro-5H-cyclopentano[B]pyridin-5-yl)-2-(2-fluoro-4-pyridine)pyrimidine-4-formamide]: less than 50 nM; for `C[C@H](NC(=O)c1cc(-c2ccc(Cl)cc2)nc(-c2cnn(C)c2)n1)c1ccc(C#N)c(F)c1` [Compound 57, (S)-6-(4-chlorophenyl)-N-(1-(3-fluoro-4-cyanophenyl)ethyl)-2-(1-methyl-1H-pyrazol-4-yl)pyrimidine-4-formamide]: less than 50 nM; for `Cn1cc(-c2nc(C(=O)N[C@H]3c4ccccc4C[C@H]3O)cc(-c3ccc(Cl)cc3)n2)cn1` [Compound 3, (S)-6-(4-chlorophenyl)-N-((1S, 2R)-(−)-1-yl-2-indanol)-2-(1-methyl-1H-pyrazol-4-yl)pyrimidine-4-formamide]: 50 to 200 nM. For `C[C@H](NC(=O)c1cc(-c2cnn(C)c2)nc(-c2cnn(C)c2)n1)c1ccnc(F)c1` [Compound 48, (S)-6-(1-methyl-1H-pyrazol-4-yl)-N-(1-(2-fluoro-4-pyridine)ethyl)-2-(1-methyl-1H-pyrazol-4-yl)pyrimidine-4-formamide], the IC50 is greater than 1000 nM.

Regarding `Cn1cc(-c2nc(C(=O)NC3(C)CCN(C(=O)C4CC4)CC3)cc(-c3ccc(Cl)cc3)n2)cn1` [Compound 43, 6-(4-chlorophenyl)-N-((4-yl-4-methylpiperidin-1-yl)(cyclopropyl)ketone)-2-(1-methyl-1H-pyrazol-4-yl)pyrimidine-4-formamide], the IC50 was less than 50 nM. The same measure for `C[C@H](NC(=O)c1cc(-c2ccc(Cl)cc2)nc(-c2cnn(C)c2)n1)c1ccc2c(c1)OCO2` [Compound 16, (S)-6-(4-chlorophenyl)-N-(1-[5(2H-1,3-benzodioxomethylene)]ethyl)-2-(1-methyl-1H-pyrazol-4-yl)pyrimidine-4-formamide]: 50 to 200 nM. In the case of `C[C@H](NC(=O)c1cc(-c2ccc(Cl)cc2)nc(-c2cnn(C)c2)n1)c1ccc2ncn(C)c2c1` [Compound 54, (S)-6-(4-chlorophenyl)-N-(1-(1-methyl-1H-benzo[d]imidazol-6-yl)ethyl)-2-(1-methyl-1H-pyrazol-4-yl)pyrimidine-4-formamide], the IC50 is less than 50 nM.
